# According to publication PMC7145288, “New Peptide-Based Pharmacophore Activates 20S Proteasome” (Molecules, 2020):
# Square brackets hold non-standard residues; d marks the D form. Peptide text beside a SMILES is read from it. Oic = O=C(O)[C@@H]1C[C@@H]2CCCC[C@@H]2N1; dOic = O=C(O)[C@H]1C[C@H]2CCCC[C@H]2N1; Tic = O=C(O)[C@@H]1Cc2ccccc2CN1
# Key:
# [1] = test system: proteasome ChT-L activity in SK-N-SH (ATCC HTB-11) cell lysates; experiment: ChT-L proteasome activity in lysates of treated SK-N-SH cells; assay type: cell-based, human
# Method: […] The content of live cells was determined by the Trypan Blue-exclusion assay. The cells were harvested, washed twice in PBS, resuspended in dilution buffer (see above) and stored in −80 °C. To prepare lysates the thawed preparations were vortexed with glass beads and centrifuged for 5 min 5000× g (4 °C). The supernatant was centrifuged for 20 min 14,000× g (4 °C). The resulting supernatant—“crude lysate” was diluted to 1 mg/mL of total protein with dilution buffer. 1 μg of lysate per assay (reaction buffer: 50 mM Tris/HCl pH 8, 0.1 mM MgCl2, 0.2 mM ATP, 0.1 mM dithiothreitol, 50 μM Suc-LLVY-AMC) was used for determination of ChT-L activity in a 96-well format, as above.
# [2] = test system: 20S core proteasome α face pockets; experiment: Competition with Rpt C-terminal tail peptides for α face pockets (ChT-L activity); assay type: biochemical, human; conditions: Rpt peptide 1 μM added before TAT peptide; for Competition with Rpt tail peptides (in words, from radar plot scores): Rpt2 α3/α4, Rpt3 α1/α2, Rpt5 α5/α6, Rpt6 α2/α3 pocket, three to six experiments; for Enhanced (synergistic) activation with Rpt tail peptides (in words): Rpt5 or Rpt6 tails
# Text: As mentioned above, the binding pockets on the α face accept “anchors” from natural protein ligands of the 20S core. […] The 10-residue Rpt-derived C-terminal “tail” peptides (“Rpt peptides”) can be used as competitors with the Rpt subunits or with small allosteric ligands. Importantly, the Rpt peptides interject between the subunits with their C-termini, whereas TAT peptides, according to the modeling, use their N-termini for this purpose. To test the specificity of interactions between TAT compounds and the α face, we performed competition experiments. The 20S core was challenged with selected TAT compounds after treatment with Rpt peptides. We selected peptides of Rpt2 ([…]), Rpt3 ([…]), Rpt5 ([…]) and Rpt6 […]) subunits, docking in α3/α4, α1/α2, α5/α6 and α2/α3 pockets, respectively. Tails of Rpt2, 3, and 5 display the canonical HbYX motif, whereas the LeuTrpLys C-terminus of Rpt6 may be considered “pseudo-HbYX”, with a bulky Trp replacing Tyr. Results of the competition experiments are presented as radar plots in Figure 7. […] This pocket also emerged as the major binding site for (1) and (8). However, these compounds likely weakly competed with the Rpt2 tail for binding to the α3/α4 pocket as well. The α3/α4 pocket seemed to be favored by (6). […] These complex patterns point at the importance of allosteric effects between the α face ligands, the gate and the catalytic chamber.
# Figure 7 TAT1 derivatives competed with selected C-terminal tails of Rpt (Regulatory Particle ATPases) subunits for binding to specific α face pockets. The scores presented in radar plots were calculated as ((relative activation by the [x] and Rpt tail)-(theoretical sum of activation by [x] and Rpt tail))/(theoretical sum of activation by [x] and Rpt tail), where [x] represent any TAT peptide. […] The positive scores for combinations of selected compounds with Rpt5 or Rpt6 tails indicated a presumed synergy in activation of the core. Average scores derived from three to six experiments are presented. The competition effects were statistically significant (at least p < 0.05) for Rpt3 peptide and (1) and (8), as well as for Rpt2 peptide and (6).
# Human housekeeping core (20S) proteasome purified from erythrocytes was purchased from Boston Biochem, Inc. (Cambridge, MA) or from Enzo Life Sciences, Inc. (Farmingdale, NY). Multiple batches of the proteasomes were used and performed reproducibly. The stock proteasome was diluted to 0.2 mg/mL working solution in “dilution buffer” (50 mM Tris/HCl, pH 8, 20% glycerol). The following model peptide substrates, all releasing fluorescent 7-amino-4-methylcoumarin (AMC) reporter group after cleavage, were used: succinyl-LeuLeuValTyr-AMC (for the ChT-L peptidase; SucLLVY-AMC; Bachem Bioscience Inc., Philadelphia, PA), butoxycarbonyl-LeuArgArg-AMC (T-L; Bachem Bioscience Inc., Philadelphia, PA) and carbobenzoxy- LeuLeuGlu-AMC (PGPH; Enzo Life Sciences Inc., Farmingdale, NY). The substrates were used at concentration of 50 μM (ChT-L) or 100 μM (T-L, PGPH). Free AMC (Sigma-Aldrich, St. Louis, MO) was used as the standard. The C-terminal peptides derived from Rpt2, Rpt3, Rpt5 and Rpt6 were synthesized (standard solid-phase peptide chemistry) and purified to at least 98% purity by GenScript (Piscataway, NJ). The TAT peptides, Rpt peptides (except Rpt6) and the peptide substrates were dissolved in anhydrous dimethylsulfoxide (DMSO; Sigma-Aldrich, St. Louis, MO) and such stock solutions were stored at −20 °C. The total concentration of DMSO in final reaction mixtures never exceeded 3% (vol/vol). The Trp (tryptophan) -containing Rpt6 peptide was dissolved in ultrapure water and stored at −20 °C, protected from light. […]
# [3] = molecular target: T1, human latent 20S core proteasome, chymotrypsin-like (ChT-L) activity (Homo sapiens, UniProt P25787+P60900); experiment: ChT-L peptidase activity of latent 20S proteasome (Suc-LLVY-AMC); assay type: biochemical; conditions: for Max Activation Fold ± SE: purified latent 20S, Tris/HCl pH 8, 50 μM Suc-LLVY-AMC, 37 °C, from fitted response curves, SEM
# T1 construct: Human housekeeping core (20S) proteasome purified from erythrocytes; purchased Boston Biochem, Inc. or Enzo Life Sciences, Inc; host or cells: human erythrocytes (natural source)
# Method: The stock proteasome was diluted to 0.2 mg/mL working solution in “dilution buffer” (50 mM Tris/HCl, pH 8, 20% glycerol). […] The substrates were used at concentration of 50 μM (ChT-L) or 100 μM (T-L, PGPH). […] The total concentration of DMSO in final reaction mixtures never exceeded 3% (vol/vol). […] The reaction was carried out in 96-well plates, in 100 μL of reaction mixture that consisted of 45 mM Tris/HCl, pH 8, 100 mM KCl, 1 mM EDTA (reaction buffer) and a fluorogenic peptide substrate, to which 200 ng (nearly […]) of proteasome were added. […] The proteasome was preincubated with a substrate for 10 min at room temperature, then 1 μL of DMSO or a desired concentration of a TAT peptide in 1 μL of DMSO were added. […] To test the competition with Rpt derived peptides, the Rpt peptide (1 μM) was added before the TAT peptide to the reaction mixture. The reaction rates were calculated from a linear segment of kinetic curves constructed from measurements in 1-min intervals.
# A two-tailed t-test was applied to compare the means. The comparisons were allowing for unequal variances with a Welch correction. Abundance of proteasome conformers was compared with the chi squared test and two-sample proportion test. A significance level was set at 0.05. […] Reaction rates were calculated from a smoothed linear segment of kinetic traces using OriginPro 2019. Response curves (activity vs. compound concentration) were fitted with a nonlinear fitting application of OriginPro 2019. The AC50 and maximum activation fold was calculated based on the equations implemented to fit the response curves.
compound,measurement,setting,value
N=C(N)NCCC[C@H](NC(=O)CN)C(=O)N[C@@H](CCCCN)C(=O)N[C@@H](CCCCN)C(=O)N[C@@H](CCCNC(=N)N)C(=O)N[C@@H](CCCNC(=N)N)C(=O)N[C@@H](CCC(N)=O)C(=O)N[C@@H](CCCNC(=N)N)C(=O)N[C@@H](CCCNC(=N)N)C(=O)N[C@@H](CCCNC(=N)N)C(=O)N1CCC[C@H]1C(=O)N[C@@H](CO)C(=O)O [(1)],Proteasome ChT-L activity in lysates of treated cells versus control lysates (in words),"[1]; SK-N-SH cells, 1 µM peptide, 24 h, 1 μg lysate, 50 μM Suc-LLVY-AMC, n = 3–4",lack of significant activation
same,"Competition with Rpt tail peptides (in words, from radar plot scores)",[2],added a weakly negative score for the Rpt2 tail to the presumed major competitor Rpt3
same,Enhanced (synergistic) activation with Rpt tail peptides (in words),[2],"enhanced activation in the presence of one of Rpt tails, namely Rpt5 or Rpt6"
N=C(N)NCCC[C@H](NC(=O)CN)C(=O)N[C@@H](CCCCN)C(=O)N1Cc2ccccc2C[C@H]1C(=O)N1[C@H](C(=O)N[C@@H](CCCNC(=N)N)C(=O)N[C@@H](CCC(N)=O)C(=O)N2Cc3ccccc3C[C@H]2C(=O)N2[C@@H](C(=O)N[C@@H](CCCNC(=N)N)C(=O)N3CCC[C@H]3C(=O)N[C@@H](CO)C(=O)O)C[C@H]3CCCC[C@H]32)C[C@@H]2CCCC[C@@H]21 [(2)] (H-GRK[Tic][Oic]RQ[Tic][dOic]RPS-OH; N-terminus and C-terminus assumed),"Competition with Rpt tail peptides (in words, from radar plot scores)",[2],"competing with Rpt2, Rpt3, and Rpt5 tails"
same,Enhanced (synergistic) activation with Rpt tail peptides (in words),[2],synergy was especially pronounced for the Rpt6-(2) pair
same,Max Activation Fold ± SE,[3],1.5 ± 0.26 fold
same,Ability to activate ChT-L activity of latent 20S (in words),"[3]; titration, latent human 20S, Suc-LLVY-AMC, n = 3–8",very poor activator
N=C(N)NCCC[C@H](NC(=O)CN)C(=O)N[C@@H](CCCCN)C(=O)N1Cc2ccccc2C[C@H]1C(=O)N1[C@H](C(=O)N[C@@H](CCCNC(=N)N)C(=O)N[C@@H](CCC(N)=O)C(=O)N[C@@H](CCCNC(=N)N)C(=O)N[C@@H](CCCNC(=N)N)C(=O)N[C@@H](CCCNC(=N)N)C(=O)N2CCC[C@H]2C(=O)N[C@@H](CO)C(=O)O)C[C@@H]2CCCC[C@@H]21 [(3)] (H-GRK[Tic][Oic]RQRRRPS-OH; N-terminus and C-terminus assumed),Max Activation Fold ± SE,[3],3.3 ± 0.23 fold
NCCCC[C@H](NC(=O)[C@H](CCCCN)NC(=O)[C@H](CCCCN)NC(=O)[C@@H]1C[C@@H]2CCCC[C@@H]2N1C(=O)[C@@H]1Cc2ccccc2CN1C(=O)[C@H](CCCCN)NC(=O)[C@H](CCCCN)NC(=O)[C@@H](N)CCCCN)C(=O)O [(6)],"Competition with Rpt tail peptides (in words, from radar plot scores)",[2],Rpt2 tail was a major competitor
same,Enhanced (synergistic) activation with Rpt tail peptides (in words),[2],"enhanced activation in the presence of one of Rpt tails, namely Rpt5 or Rpt6"
"CC(C)C[C@H](NC(=O)[C@H](Cc1ccccc1)NC(=O)c1cnccn1)B(O)O [bortezomib, reference compound]",Abolition of ChT-L activity in cell lysates,[1]; 1 µM bortezomib added to lysates from control and TAT-exposed SK-N-SH cells,> 85%
